The source made the active and inactive calls. The rule behind the calls is not given here.
Assays:
[1] = Displacement of [3H]RX821002 from adrenergic alpha2 receptor at 10 uM relative to control
[2] = molecular target: T1, 5-hydroxytryptamine receptor 1A (Homo sapiens) (UniProt P08908); assay: Displacement of [3H]8-OH-DPAT from human 5HT1A receptor at 10 uM relative to control
T1 sequence (whole entry): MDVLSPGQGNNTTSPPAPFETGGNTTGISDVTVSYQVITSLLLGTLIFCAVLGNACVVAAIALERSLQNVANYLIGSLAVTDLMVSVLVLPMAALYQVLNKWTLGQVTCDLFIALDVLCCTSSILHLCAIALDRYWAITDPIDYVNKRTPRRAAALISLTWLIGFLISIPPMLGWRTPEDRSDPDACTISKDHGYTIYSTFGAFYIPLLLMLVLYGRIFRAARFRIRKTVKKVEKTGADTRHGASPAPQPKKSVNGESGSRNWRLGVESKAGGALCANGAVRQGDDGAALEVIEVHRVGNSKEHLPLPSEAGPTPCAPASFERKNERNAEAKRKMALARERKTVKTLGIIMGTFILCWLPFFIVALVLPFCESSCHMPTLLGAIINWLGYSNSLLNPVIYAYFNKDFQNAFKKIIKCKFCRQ

[3] = Displacement of [3H]prazosin from adrenergic alpha1 receptor at 10 uM relative to control
[4] = molecular target: Sodium-dependent dopamine transporter (Homo sapiens) (UniProt Q01959); assay: Displacement of [3H]BTCP from human DA transporter at 10 uM relative to control
[5] = molecular target: D(2) dopamine receptor (Homo sapiens) (UniProt P14416); assay: Displacement of [3H]methyl-spiperone from human dopamine D2s receptor at 10 uM relative to control
[6] = molecular target: Beta-2 adrenergic receptor (Homo sapiens) (UniProt P07550); assay: Displacement of [3H](-)-CGP12177 from human adrenergic beta2 receptor at 10 uM relative to control
[7] = molecular target: 5-hydroxytryptamine receptor 2B (Homo sapiens) (UniProt P41595); assay: Displacement of [125I](+/-)-DOI from human 5HT2B receptor at 10 uM relative to control
[8] = molecular target: Indoleamine 2,3-dioxygenase 1 (Homo sapiens) (UniProt P14902); assay: Inhibition of IDO at 10 uM
[9] = molecular target: Melatonin receptor type 1A (Homo sapiens) (UniProt P48039); assay: Displacement of [125I]2-iodomelatonin from human MT1 receptor at 10 uM relative to control
[10] = molecular target: Sodium-dependent serotonin transporter (Homo sapiens) (UniProt P31645); assay: Displacement of [3H]imipramine from human 5HT transporter at 10 uM relative to control
[11] = molecular target: T2, 5-hydroxytryptamine receptor 3A (Homo sapiens) (UniProt P46098); assay: Displacement of [3H]BRL43694 from human 5HT3 receptor at 10 uM relative to control
T2 sequence (whole entry): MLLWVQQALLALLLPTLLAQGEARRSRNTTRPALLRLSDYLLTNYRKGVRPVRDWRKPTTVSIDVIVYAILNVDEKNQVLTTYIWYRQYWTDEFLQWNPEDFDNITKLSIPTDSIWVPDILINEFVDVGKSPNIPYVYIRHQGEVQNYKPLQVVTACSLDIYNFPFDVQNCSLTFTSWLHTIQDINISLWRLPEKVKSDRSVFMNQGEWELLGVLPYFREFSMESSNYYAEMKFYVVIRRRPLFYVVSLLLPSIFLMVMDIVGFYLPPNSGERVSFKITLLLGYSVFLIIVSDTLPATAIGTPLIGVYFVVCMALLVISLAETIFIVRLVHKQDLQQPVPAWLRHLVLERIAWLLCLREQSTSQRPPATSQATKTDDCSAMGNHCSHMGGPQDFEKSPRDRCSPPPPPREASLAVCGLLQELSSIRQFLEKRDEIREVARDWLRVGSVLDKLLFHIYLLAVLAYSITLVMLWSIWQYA

[12] = molecular target: 5-hydroxytryptamine receptor 2A (Homo sapiens) (UniProt P28223); assay: Displacement of [3H]ketanserin from human 5HT2A receptor at 10 uM relative to control
[13] = molecular target: 5-hydroxytryptamine receptor 5A (Homo sapiens) (UniProt P47898); assay: Displacement of [3H]LSD from human 5HT5A receptor at 10 uM relative to control
[14] = molecular target: 5-hydroxytryptamine receptor 7 (Homo sapiens) (UniProt P34969); assay: Displacement of [3H]LSD from human 5HT7 receptor at 10 uM relative to control
[15] = molecular target: 5-hydroxytryptamine receptor 6 (Homo sapiens) (UniProt P50406); assay: Displacement of [3H]LSD from human 5HT6 receptor at 10 uM relative to control
[16] = molecular target: Sodium-dependent noradrenaline transporter (Homo sapiens) (UniProt P23975); assay: Displacement of [3H]nisoxetine from human NE transporter at 10 uM relative to control
[17] = test system: P815B; assay: Antitumor activity against mouse P815B cells expressing TDO xenografted in immunized mouse assessed as tumor growth inhibition at 160 mg/kg/day, po administered with water; assay type: functional, organism-based
[18] = molecular target: D(1A) dopamine receptor (Homo sapiens) (UniProt P21728); assay: Displacement of [3H]SCH23390 from human dopamine D1 receptor at 10 uM relative to control
[19] = molecular target: 5-hydroxytryptamine receptor 1B (Homo sapiens) (UniProt P28222); assay: Displacement of [125I]CYP from human 5HT1B receptor at 10 uM relative to control
[20] = molecular target: Beta-1 adrenergic receptor (Homo sapiens) (UniProt P08588); assay: Displacement of [3H](-)-CGP12177 from human adrenergic beta1 receptor at 10 uM relative to control
Beta-1 adrenergic receptor (Homo sapiens), sequence (P08588 whole entry, looked up): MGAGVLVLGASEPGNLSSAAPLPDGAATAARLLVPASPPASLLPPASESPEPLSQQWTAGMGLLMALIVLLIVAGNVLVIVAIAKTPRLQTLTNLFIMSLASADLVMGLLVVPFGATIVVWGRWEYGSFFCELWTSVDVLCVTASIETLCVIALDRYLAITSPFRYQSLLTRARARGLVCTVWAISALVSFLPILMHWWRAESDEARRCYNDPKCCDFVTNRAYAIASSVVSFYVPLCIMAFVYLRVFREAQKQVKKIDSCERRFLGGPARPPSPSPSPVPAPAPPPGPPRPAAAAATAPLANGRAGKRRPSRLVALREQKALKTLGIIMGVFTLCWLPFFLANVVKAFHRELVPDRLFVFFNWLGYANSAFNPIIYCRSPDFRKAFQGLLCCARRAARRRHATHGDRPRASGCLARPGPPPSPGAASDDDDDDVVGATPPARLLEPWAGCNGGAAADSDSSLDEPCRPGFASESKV

5-hydroxytryptamine receptor 5A (Homo sapiens), sequence (P47898 whole entry): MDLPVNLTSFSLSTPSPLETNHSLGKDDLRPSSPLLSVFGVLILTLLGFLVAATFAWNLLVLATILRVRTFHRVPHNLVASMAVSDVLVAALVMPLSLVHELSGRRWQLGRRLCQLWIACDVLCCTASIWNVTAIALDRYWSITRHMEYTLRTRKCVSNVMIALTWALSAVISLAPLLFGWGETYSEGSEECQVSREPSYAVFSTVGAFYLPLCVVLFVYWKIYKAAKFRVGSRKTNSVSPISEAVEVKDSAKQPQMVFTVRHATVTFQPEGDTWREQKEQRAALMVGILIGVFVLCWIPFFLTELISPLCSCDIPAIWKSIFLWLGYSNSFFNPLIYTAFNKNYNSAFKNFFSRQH
D(1A) dopamine receptor (Homo sapiens), sequence (P21728 whole entry): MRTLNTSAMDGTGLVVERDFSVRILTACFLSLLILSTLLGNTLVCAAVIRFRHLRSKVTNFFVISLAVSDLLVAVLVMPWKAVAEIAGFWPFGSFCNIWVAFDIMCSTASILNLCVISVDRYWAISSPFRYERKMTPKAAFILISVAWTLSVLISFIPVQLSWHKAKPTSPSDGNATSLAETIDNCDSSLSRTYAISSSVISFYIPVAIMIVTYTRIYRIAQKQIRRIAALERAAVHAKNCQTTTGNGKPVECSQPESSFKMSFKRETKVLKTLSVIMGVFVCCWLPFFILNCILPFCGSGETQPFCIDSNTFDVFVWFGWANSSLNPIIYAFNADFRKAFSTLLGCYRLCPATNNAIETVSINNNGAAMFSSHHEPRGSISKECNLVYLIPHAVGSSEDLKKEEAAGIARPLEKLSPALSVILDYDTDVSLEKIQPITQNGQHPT
5-hydroxytryptamine receptor 1B (Homo sapiens), sequence (P28222 whole entry): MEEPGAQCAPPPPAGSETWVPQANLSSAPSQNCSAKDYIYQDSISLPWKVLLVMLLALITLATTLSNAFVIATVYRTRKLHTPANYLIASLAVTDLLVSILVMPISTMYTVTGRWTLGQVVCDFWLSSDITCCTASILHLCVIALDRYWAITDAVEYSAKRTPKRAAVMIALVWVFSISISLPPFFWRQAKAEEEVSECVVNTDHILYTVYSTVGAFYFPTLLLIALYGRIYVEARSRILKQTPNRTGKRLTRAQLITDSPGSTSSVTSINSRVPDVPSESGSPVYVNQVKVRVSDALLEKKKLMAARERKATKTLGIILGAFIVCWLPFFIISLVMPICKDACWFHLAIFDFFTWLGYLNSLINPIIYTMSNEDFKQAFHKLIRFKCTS
D(2) dopamine receptor (Homo sapiens), sequence (P14416 whole entry): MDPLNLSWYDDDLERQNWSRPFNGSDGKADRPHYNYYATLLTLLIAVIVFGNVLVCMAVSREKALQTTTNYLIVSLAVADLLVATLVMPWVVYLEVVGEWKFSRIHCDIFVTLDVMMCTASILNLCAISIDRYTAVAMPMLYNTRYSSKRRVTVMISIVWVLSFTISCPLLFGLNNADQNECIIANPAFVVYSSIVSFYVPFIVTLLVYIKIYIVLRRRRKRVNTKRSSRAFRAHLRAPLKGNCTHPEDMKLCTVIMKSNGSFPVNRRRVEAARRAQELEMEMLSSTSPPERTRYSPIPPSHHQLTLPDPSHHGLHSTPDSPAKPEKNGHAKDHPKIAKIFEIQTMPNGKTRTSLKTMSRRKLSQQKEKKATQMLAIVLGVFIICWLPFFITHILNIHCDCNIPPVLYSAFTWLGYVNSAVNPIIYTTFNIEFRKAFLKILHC
Sodium-dependent dopamine transporter (Homo sapiens), sequence (Q01959 whole entry): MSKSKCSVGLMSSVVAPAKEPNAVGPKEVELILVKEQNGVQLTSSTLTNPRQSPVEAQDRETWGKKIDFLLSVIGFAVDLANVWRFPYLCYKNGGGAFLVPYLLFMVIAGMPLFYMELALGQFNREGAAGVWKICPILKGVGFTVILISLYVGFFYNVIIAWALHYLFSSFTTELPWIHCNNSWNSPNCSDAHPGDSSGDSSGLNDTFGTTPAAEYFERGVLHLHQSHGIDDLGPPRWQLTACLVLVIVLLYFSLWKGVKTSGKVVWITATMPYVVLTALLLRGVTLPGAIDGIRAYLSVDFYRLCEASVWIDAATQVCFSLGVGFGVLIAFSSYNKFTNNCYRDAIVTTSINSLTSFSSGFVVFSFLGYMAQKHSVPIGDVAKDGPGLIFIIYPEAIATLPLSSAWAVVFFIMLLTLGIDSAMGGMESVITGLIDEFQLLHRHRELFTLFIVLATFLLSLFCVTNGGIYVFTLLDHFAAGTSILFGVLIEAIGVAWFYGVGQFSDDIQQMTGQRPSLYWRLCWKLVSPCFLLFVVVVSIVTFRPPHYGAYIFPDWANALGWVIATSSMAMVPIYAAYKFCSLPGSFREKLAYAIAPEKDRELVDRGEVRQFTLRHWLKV
5-hydroxytryptamine receptor 6 (Homo sapiens), sequence (P50406 whole entry): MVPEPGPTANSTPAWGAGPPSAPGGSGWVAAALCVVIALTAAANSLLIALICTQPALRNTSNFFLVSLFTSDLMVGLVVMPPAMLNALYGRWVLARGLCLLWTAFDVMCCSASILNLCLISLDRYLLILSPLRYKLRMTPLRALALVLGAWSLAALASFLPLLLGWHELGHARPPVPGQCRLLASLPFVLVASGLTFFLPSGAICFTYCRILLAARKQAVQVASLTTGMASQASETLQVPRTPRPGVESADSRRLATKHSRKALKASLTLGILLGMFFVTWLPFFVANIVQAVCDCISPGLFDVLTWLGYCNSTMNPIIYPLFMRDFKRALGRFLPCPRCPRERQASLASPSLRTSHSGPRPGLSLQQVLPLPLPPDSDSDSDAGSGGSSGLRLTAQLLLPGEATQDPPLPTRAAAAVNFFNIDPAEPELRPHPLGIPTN
Sodium-dependent noradrenaline transporter (Homo sapiens), sequence (P23975 whole entry): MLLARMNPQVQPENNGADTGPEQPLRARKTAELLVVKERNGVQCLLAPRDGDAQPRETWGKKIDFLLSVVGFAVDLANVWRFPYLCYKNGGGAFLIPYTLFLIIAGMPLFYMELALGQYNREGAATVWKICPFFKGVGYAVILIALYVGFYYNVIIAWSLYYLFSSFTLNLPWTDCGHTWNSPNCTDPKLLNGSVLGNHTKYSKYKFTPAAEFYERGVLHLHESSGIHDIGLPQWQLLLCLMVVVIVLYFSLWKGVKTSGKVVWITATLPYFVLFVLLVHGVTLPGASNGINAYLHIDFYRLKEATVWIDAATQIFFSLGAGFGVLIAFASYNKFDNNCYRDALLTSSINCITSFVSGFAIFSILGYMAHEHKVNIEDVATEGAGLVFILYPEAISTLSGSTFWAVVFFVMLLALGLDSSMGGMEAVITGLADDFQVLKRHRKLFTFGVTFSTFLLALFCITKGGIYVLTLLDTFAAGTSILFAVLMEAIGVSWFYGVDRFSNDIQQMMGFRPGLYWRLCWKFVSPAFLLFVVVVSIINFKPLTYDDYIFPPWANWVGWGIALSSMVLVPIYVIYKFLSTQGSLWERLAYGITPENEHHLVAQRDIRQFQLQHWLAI
Melatonin receptor type 1A (Homo sapiens), sequence (P48039 whole entry): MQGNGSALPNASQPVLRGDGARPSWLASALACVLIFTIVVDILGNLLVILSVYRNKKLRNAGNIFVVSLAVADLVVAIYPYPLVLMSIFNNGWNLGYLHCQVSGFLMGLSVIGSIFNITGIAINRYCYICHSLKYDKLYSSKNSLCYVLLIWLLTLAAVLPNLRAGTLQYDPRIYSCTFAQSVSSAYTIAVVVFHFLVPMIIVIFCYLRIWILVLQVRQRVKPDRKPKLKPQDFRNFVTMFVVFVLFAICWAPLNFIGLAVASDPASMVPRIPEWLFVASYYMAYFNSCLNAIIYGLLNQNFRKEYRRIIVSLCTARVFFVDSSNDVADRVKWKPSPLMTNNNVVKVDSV
5-hydroxytryptamine receptor 7 (Homo sapiens), sequence (P34969 whole entry): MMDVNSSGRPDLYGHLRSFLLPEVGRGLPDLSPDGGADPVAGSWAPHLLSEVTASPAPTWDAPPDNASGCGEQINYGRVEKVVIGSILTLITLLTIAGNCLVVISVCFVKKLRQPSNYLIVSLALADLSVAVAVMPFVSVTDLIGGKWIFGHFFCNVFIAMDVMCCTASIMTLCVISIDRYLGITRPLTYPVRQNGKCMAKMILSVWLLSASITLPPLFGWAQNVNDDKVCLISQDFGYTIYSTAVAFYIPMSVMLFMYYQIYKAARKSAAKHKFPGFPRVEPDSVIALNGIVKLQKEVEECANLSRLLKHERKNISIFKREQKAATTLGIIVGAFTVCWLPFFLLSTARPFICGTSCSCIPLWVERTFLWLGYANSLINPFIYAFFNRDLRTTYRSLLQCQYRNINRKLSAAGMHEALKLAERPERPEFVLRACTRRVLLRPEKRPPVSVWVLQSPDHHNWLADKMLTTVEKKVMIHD

SMILES: Fc1ccc2c(/C=C/c3nnn[nH]3)c[nH]c2c1
- inhibition [1]: < 10%
- inhibition [2]: < 10%
- inhibition [3]: < 10%
- inhibition [4]: < 10%
- inhibition [5]: < 10%
- inhibition [6]: < 10%
- inhibition [7]: < 10%
- inhibition [8]: < 10%
- inhibition [9]: < 10%
- inhibition [10]: 26%
- inhibition [11]: < 10%
- inhibition [12]: < 10%
- inhibition [13]: < 10%
- inhibition [14]: < 10%
- inhibition [15]: < 10%
- inhibition [16]: < 10%
- Activity [17]: Active
- inhibition [18]: < 10%
- inhibition [19]: < 10%
- inhibition [20]: 14%
